Measurements from US20060088471A1, “Compounds for enzyme inhibition” (Proteolix, Inc., priority 2004, published 2006).

Experiments:
[1] = biological target: human 20S proteasome (hu20S) (Homo sapiens, UniProt P28074); assay: Human 20S chymotryptic activity, Suc-LLVY-AMC cleavage; assay type: biochemical; settings: for Human 20S Chymotryptic Activity kinact./Ki: 10 μM Suc-LLVY-AMC, 1 nM hu20S, 20 mM Tris pH 8.0, 0.5 mM EDTA, 0.03% SDS, 5% DMSO; for IC50 / kinact/KI: Suc-LLVY-AMC substrate; for IC50: read-out: Human 20S Chymotryptic Activity Vf IC50; for kinact/KI: read-out: Human 20S Chymotryptic Activity kobs/[I]
Protocol: Proteasome activity was measured via LLVY-AMC cleavage. Fluorescence was measured using the excitation wavelength of 340 nm and an emission wavelength of 465 nm. The assay was carried out in 20 mM Tris, pH 8.0, 0.5 mM EDTA, 0.03% SDS buffer with 5% DMSO.
(§1) The ability of Inhibitor 1 to inhibit the proteolytic activity of the human 20S proteasome (hu20S) both in vitro and in cells was tested using the fluorescent substrate for the chymotryptic-like activity of the proteasome, Suc-LLVY-AMC as shown in FIG. 1 and Table 1. Fluorescence was measured using the excitation wavelength of 340 nm and an emission wavelength of 465 nm. […] The assay was carried out in 20 mM Tris, pH 8.0, 0.5 mM EDTA, 0.03% SDS buffer with 5% DMSO.

[2] = system: chymotryptic-like activity of the proteasome in 8226 cells; assay: Cell chymotryptic activity in 8226 cells; assay type: cell-based, human; settings: 1 hr
Protocol: as §1

[3] = system: 8226 cells; assay: Cell viability, 8226; assay type: cell-based; settings: 24 hr
[4] = biological target: purified human 20S proteasome (Homo sapiens, UniProt P28074); assay: Binding to the proteasome via fluorescence polarization; settings: 2 nM inhibitor
Protocol: Fluorescence was measured using the excitation wavelength of 485 nm and an emission wavelength of 535 nm.
2 nM of Inhibitor 1 was incubated with a serial dilution of purified human 20S proteasome (from 400 pM to 40 nM) in a 20 mM Tris, pH 8.0, 0.5 mM EDTA, 0.03% SDS buffer and was allowed to bind to the proteasome during an incubation at room temperature as shown in FIG. 2. Fluorescence polarization was measured by exciting the samples at 485 nm and detecting the emitted fluorescence at 535 nm in a microwell plate in a fluorimeter capable of measuring fluorescence polarization (Tecan GENios Pro). […] When the concentration of human 20S was low (free Inhibitor 1), the mP was about 40 millipolarization units (mP). The fluorescence polarization at high concentrations of human 20S (bound Inhibitor 1) was about 110 mP.

[5] = biological target: β5 subunit of human 20S or whole blood lysate (Homo sapiens, UniProt P28074); assay: Streptavidin gel shift assay compared with chymotryptic substrate cleavage assay; assay type: biochemical; settings: probe Inhibitor 3
Protocol: Human 20S (50 nM) or whole blood lysate (100 mg/mL) was pretreated with either DMSO or Inhibitor 4 (200 nM) for 1 h. Inhibitor 3 (1 μM) was then added. After 1 h, unbound Inhibitor 3 was removed using a spin desalting column and the resulting solution was diluted (1:10) in 1% SDS and heated at 90° C. to denature the proteins. The solution was cooled to room temperature and streptavidin (±1 μg/15 μL) was added. The inhibitor/streptavidin solution was then added to NuPAGE sample buffer at room temperature (not boiled). The sample was then loaded on NuPAGE gel and run at 150 V in a refrigerator at approximately 4° C.

[6] = biological target: T1, chymotryptic-like activity of the proteasome in HT29 cells (Homo sapiens, UniProt P28074); assay: Cell chymotryptic activity in HT29 cells; assay type: cell-based; settings: 4 hr
T1 construct: endogenous in cells; host or cells: HT29 cells
Protocol: as §1

[7] = system: HT29 cells; assay: Cell viability, HT29; assay type: cell-based; settings: Homo sapiens, HT-29, 72 hr
[8] = system: p53 levels; settings: epoxomicin treatment; cited from earlier work

Row | SMILES | Human 20S Chymotryptic Activity kinact./Ki [1] | IC50 [1] | kinact/KI [1] | IC50 [2] | IC50 [3] | Fluorescence polarization, bound Inhibitor 1 ([4]; high concentrations of human 20S) | Fluorescence polarization, free Inhibitor 1 ([4]; low concentration of human 20S) | Dose response: gel shift assay versus chymotryptic substrate cleavage assay [5] | IC50 [6] | IC50 [7] | p53 levels stabilized [8]
1 | CC(C)C[C@H](NC(=O)[C@H](CCc1ccccc1)NC(=O)c1ccc(C2=C3C=CC(O)C=C3Oc3cc(O)ccc32)c(C(=O)O)c1)C(=O)N[C@@H](Cc1ccccc1)C(=O)N[C@@H](CC(C)C)C(=O)[C@@]1(C)CO1 (single isomer, unassigned) [Inhibitor 1] | 27,000 M^-1sec^-1 | 9.4 nM | 23000 M⁻¹ s⁻¹ | 340 nM | 191 nM | about 110 mP | about 40 mP |  |  |  | 
2 | CC(C)C[C@H](NC(=O)[C@H](CCc1ccccc1)NC(=O)CN1CCOCC1)C(=O)N[C@@H](Cc1ccccc1)C(=O)N[C@@H](CC(C)C)C(=O)[C@@]1(C)CO1 [Inhibitor 4] |  |  |  |  |  |  |  | comparable IC50 values |  |  | 
3 | CC(=O)N[C@@H](CCc1ccccc1)C(=O)N[C@@H](CC(C)C)C(=O)N[C@@H](Cc1ccccc1)C(=O)N[C@@H](CC(C)C)C(=O)[C@@]1(C)CO1 [YU101] | 105,000 M^-1sec^-1 | 2 nM | 93500 M⁻¹ s⁻¹ | 7.3 nM | 5 nM |  |  |  | 3.3 nM | 6.8 nM | 
4 | CC[C@H](C)[C@H](NC(=O)[C@H]([C@@H](C)CC)N(C)C(C)=O)C(=O)N[C@H](C(=O)N[C@@H](CC(C)C)C(=O)[C@@]1(C)CO1)[C@@H](C)O [epoxomicin] |  |  |  |  |  |  |  |  |  |  | over 50 fold
